Data published in patent US20130012440A1, “PREVENTIVE AND/OR THERAPEUTIC AND/OR AGGRAVATION SUPPRESSING AGENT FOR HUMAN ARTHRITIS DEFORMANS” (ASAHI KASEI PHARMA CORPORATION, priority 2009, published 2013).
Marks after values point to notes of the source that are not given here.

Columns and labels:
mice = assay: Fatal toxicity after administration to mice; type: in vivo; conditions: 3300 or 2000 units/kg (body weight), intravenous, intramuscular, subdermal, or oral routes
Text: (§1) The aforedescribed PTH or PTH derivative has extremely low toxicity.

rats = assay: Fatal toxicity after administration to rats; type: in vivo; conditions: 3300 or 2000 units/kg (body weight), intravenous, intramuscular, subdermal, or oral routes
Text: as §1

[1] = test system: female patients diagnosed with primary osteoporosis; assay: Test Example 1: onset of knee osteoarthritis during once-weekly subdermal administration (5- vs 100-unit groups); type: in vivo, human; conditions: for Frequency of onset (%) of knee osteoarthritis / Number of cases of onset of knee osteoarthritis: subdermal once per week
Procedure: (§2) Female patients diagnosed with primary osteoporosis on the basis of the diagnostic criteria of Non-Patent Document 42 were given intermittent subdermal administrations of 5 or 100 units of an acetate salt of human PTH (1-34), which was prepared using the method of Takai (Patent Documents 4 and 5, Non-Patent Document 43), once per week (accordingly, there was a 5-unit administration group and a 100-unit administration group). The measured activity of the acetate salt of human PTH (1-34) was 3300 units/mg in the present test example according to the article of Marcus et al. (Non-Patent Document 44).
An injectable formulation containing 5 or 100 units per vial of the acetate salt of human PTH (1-34) was dissolved into 1 mL of normal saline solution at the time of usage, and 1 mL/person was subdermally administered to the 5-unit and 100-unit groups. Two tablets of a calcium agent (containing 500 mg of precipitated calcium carbonate (200 mg of calcium) per tablet) were further administered orally once per day to the 5-unit and 100-unit groups.
(§3) During the course of administration, both groups were prohibited from concurrent usage of calcitonin formulations, activated vitamin D3 formulations, vitamin K formulations, ipriflavone formulations, formulations of salts of bisphosphonic acid, estrogen formulations, anabolic-hormone formulations, doctor-prescribed calcium formulations (excepting the aforedescribed calcium agent administered as two tablets per day), and other medicinal agents thought to exert an effect on bone metabolism.
(§4) The attending physicians evaluated knee osteoarthritis according to the diagnostic criteria of each medical treatment facility on the basis of, e.g., the chief complaints of the patient, such as knee-joint pain and knee pain.
The frequency of onset of knee osteoarthritis in the 5-unit administration group in the present test example was also compared to the natural frequency of onset. The value used for the natural frequency of onset resulted from dividing the 174,000 female arthritis patients of ages 70 through 74 throughout the country in the Japanese Nationwide Patient Survey (2005, edited by the Statistics and Information Department of the Minister's Secretariat of the Ministry of Health, Labour and Welfare, [published by] the Health and Welfare Statistics Association) by the population of 3,597,754 women of the same age throughout the country according to the Statistics Bureau of the Ministry of Internal Affairs and Communications.

[2] = test system: female patients diagnosed with primary osteoporosis; assay: Test Example 2: onset and exacerbation of knee osteoarthritis during once-weekly subdermal administration (placebo vs 200-unit group); type: in vivo, human
Procedure: Two tablets of a calcium agent (containing 500 mg of precipitated calcium carbonate (200 mg of calcium) per tablet) were further administered orally once per day to the placebo group and the 200-unit administration group.
as §3, §4

[3] = test system: adenyl cyclase from rat kidney; assay: Activity measurement according to the article of Marcus et al.; type: biochemical; conditions: method of Marcus et al. (Non-Patent Document 44)
Procedure: [Non-Patent Document 44] Marcus, R et al. “Bioassay of parathyroid hormone in vitro with a stable preparation of adenyl cyclase from rat kidney” Endocrinology 85: 801-810, 1969. […]
as §2

[4] = test system: rabbit model of meniscus damage; conditions: cited from earlier work
[5] = test system: knee osteoarthritis patients; conditions: cited from earlier work
[6] = test system: cartilage cells acquired from knee osteoarthritis patients; conditions: cited from earlier work
[7] = test system: rabbit model of anterior cruciate ligament transection; conditions: cited from earlier work
[8] = test system: spontaneous-onset guinea pig model; conditions: cited from earlier work
[9] = test system: rats subjected to ovariectomy; conditions: cited from earlier work
[10] = test system: monkeys subjected to ovariectomy; conditions: cited from earlier work
[11] = test system: mice subjected to orchiectomy; conditions: cited from earlier work
hip osteoarthritis = conditions: systematic review of clinical results; cited from earlier work
[12] = test system: rat model of osteoarthritis; conditions: cited from earlier work
[13] = 5-unit administration group, 165 cases
[14] = listed as printed as 100-unit administration group, subdermal once per week

## human PTH (1-34)
mice
  Fatal toxicity: never observed
rats
  Fatal toxicity: never observed
[1]; [13]
  Frequency of onset (%) of knee osteoarthritis: 6.67%
  Number of cases of onset of knee osteoarthritis: 11
[1]; 5 units once per week, 6.67% vs natural 4.84%
  Frequency of onset of knee osteoarthritis, 5-unit group compared with natural frequency of onset: statistically significant difference was not found
[1]; 100-unit administration group, 314 cases
  Number of cases of onset of knee osteoarthritis: 4
[1]; 100-unit administration group, 314 cases, p < 0.05 vs 5-unit group
  Frequency of onset (%) of knee osteoarthritis: 1.27* %
[1]; 100 units once per week vs 5 units, p<0.05
  Frequency of onset of knee osteoarthritis, 100-unit group compared with 5-unit group: significantly less than that in the 5-unit administration group
[1]; 100 units once per week, natural frequency of onset 4.84%
  Onset of knee osteoarthritis, 100-unit group compared with natural onset: significantly more limited onset of knee osteoarthritis than in the case of natural onset
[2]; 200 units once per week
  Frequency of onset of knee osteoarthritis, 200-unit group compared with placebo group: less than that in the placebo group
[2]; administration to osteoporosis patients
  Onset and exacerbation of knee osteoarthritis in osteoporosis patients: clearly and markedly limits the onset and exacerbation of knee osteoarthritis
[2]; [14]
  Exacerbation of knee osteoarthritis: Number of cases of exacerbation: 4
  Onset of knee osteoarthritis: Frequency of onset (%): 5.4%
  Onset of knee osteoarthritis: Number of cases of onset: 15
[3]
  Measured activity: 3300 units/mg

## Hyaluronate
[4]
  Accelerating healing: accelerating healing
[5]; meta-analyses of clinical tests on knee osteoarthritis patients
  Efficacy as a medicine for limiting the progression of the disease: in doubt
[6]
  Limiting apoptosis of cartilage cells: activity for limiting apoptosis of cartilage cells
  Limiting the production of enzymes that degrade the cartilage matrix: showed activity for limiting the production of enzymes that degrade the cartilage matrix
[7]
  Activity for limiting disease progression: activity for limiting disease progression

## O=P(O)(O)C(O)(Cc1cccnc1)P(=O)(O)O [risedronate]
[8]
  Effect of limiting cartilage degeneration: found to have an effect of limiting cartilage degeneration
[5]; clinical tests on knee osteoarthritis patients
  Medicinal effects: medicinal effects were not found

## Estrogen
[9]
  Activity for improving cartilage degeneration: activity for improving cartilage degeneration
[10]
  Activity for improving cartilage degeneration: activity for improving cartilage degeneration
[11]
  Activity for improving cartilage degeneration: activity for improving cartilage degeneration
Hip osteoarthritis
  Effects of estrogen therapy: has not been found to have clear effects
  Risk of hip osteoarthritis: increase the risk of hip osteoarthritis

B1: parathyroid hormone (protein, UniProt P01270 32-115, looked up)
Parathyroid hormone: SVSEIQLMHNLGKHLNSMERVEWLRKKLQDVHNFVALGAPLAPRDAGSQRPRKKEDNVLVESHEKSLGEADKADVNVLTKAKSQ
modifications: Parathyroid hormone
[12]
  Therapeutic effect: a slight therapeutic effect
